Test results published in patent US8158628B2, “Sulfonylated 1,2,3,4-tetrahydropyrrolo[1,2-a]pyrazine compounds and their use as pharmaceuticals” (Gruenenthal GmbH, priority 2009, dated 2012).

How the values were obtained:
human B1R = molecular target: T1, human B1R (Homo sapiens, UniProt P46663); experiment: FLIPR Ca2+ functional assay, B1R antagonism, human B1R in CHO K1 cells; type: cell-based; settings: test substance 10 μM; hB1R CHO K1 cells; agonist Lys-Des-Arg9 bradykinin at EC80; % of maximum achievable inhibition
T1 construct: expressed in transfected cells; host or cells: CHO K1 cells (Chinese hamster ovary), stably transfected
T1 sequence (P46663 1-353): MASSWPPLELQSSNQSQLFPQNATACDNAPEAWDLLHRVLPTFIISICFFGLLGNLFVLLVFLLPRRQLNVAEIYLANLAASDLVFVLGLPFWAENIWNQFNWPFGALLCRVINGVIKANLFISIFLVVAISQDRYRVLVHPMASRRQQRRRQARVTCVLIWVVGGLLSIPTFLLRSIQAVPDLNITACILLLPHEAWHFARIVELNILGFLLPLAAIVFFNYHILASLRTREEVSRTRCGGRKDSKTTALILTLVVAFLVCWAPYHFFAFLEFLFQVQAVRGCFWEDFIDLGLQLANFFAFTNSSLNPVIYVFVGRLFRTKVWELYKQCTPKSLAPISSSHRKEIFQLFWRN
Experimental: The agonistic or antagonistic action of substances on the bradykinin 1 receptor (B1R) of the human and rat species can be quantified with ectopically expressing cell lines (CHO K1 cells) and with the aid of a Ca^2+-sensitive dye (Fluo-4) using a fluorescent imaging plate reader (FLIPR). The value in % activation is based on the Ca^2+ signal after addition of Lys-Des-Arg^9 bradykinin (0.5 nM) or Des-Arg^9 bradykinin (100 nM). Antagonists lead to a suppression of the Ca^2+ influx following administration of the agonist. The % inhibition in comparison with the maximum achievable inhibition is indicated.
1. Functional Investigation on the Bradykinin 1 Receptor (B1R) The agonistic or antagonistic action of substances can be determined on the bradykinin 1 receptor (B1R) of the human and rat species with the following assay. According to this assay, the Ca^2+ inflow through the channel is quantified with the aid of a Ca^2+-sensitive dye (Fluo-4 type, Molecular Probes Europe BV, Leiden, Netherlands) in a fluorescent imaging plate reader (FLIPR, Molecular Devices, Sunnyvale, USA). 2. Method: Chinese hamster ovary cells (CHO K1 cells) which are stably transfected with the human B1R gene (hB1R cells) or the B1R gene of the rat (rB1R cells) are used. For functional investigations these cells are plated-out onto black 96-well plates with a clear base (BD Biosciences, Heidelberg, Germany or Greiner, Frickenhausen, Germany) in a density of 20,000-35,000 cells/well. Overnight the cells are incubated at 37° C. and 5% CO2 in culture medium (hB1R cells: Ham's Nutrient Mixture F12, Gibco Invitrogen GmbH, Karlsruhe, Germany or DMEM, Sigma-Aldrich, Taufkirchen, Germany; rB1R cells: D-MEM/F12, Gibco Invitrogen, Karlsruhe, Germany) with 10 vol. % FBS (foetal bovine serum, Gibco Invitrogen GmbH, Karlsruhe, Germany or PAN Biotech GmbH, Aidenbach, Germany).
On the following day the cells are loaded with 2.13 μM Fluo-4 (Molecular Probes Europe BV, Leiden, Netherlands) in HBSS buffer (Hank's buffered saline solution, Gibco Invitrogen GmbH, Karlsruhe, Germany) with 2.5 mM probenecid (Sigma-Aldrich, Taufkirchen, Germany) and 10 mM HEPES (Sigma-Aldrich, Taufkirchen, Germany) for 60 min at 37° C. The plates are subsequently washed twice with HBSS buffer, and HBSS buffer which additionally contains 0.1% BSA (bovine serum albumin; Sigma-Aldrich, Taufkirchen, Germany), 5.6 mM glucose and 0.05% gelatine (Merck KGaA, Darmstadt, Germany) is added. After a further incubation of 20 minutes at RT, the plates are inserted into the FLIPR for Ca^2+ measurement. Alternatively they are washed with buffer A (15 mM HEPES, 80 mM NaCl, 5 mM KCl, 1.2 mM CaCl2, 0.7 mM MgSO4, 2 g/l glucose, 2.5 mM probenecid) and loaded with buffer A with added 2.5 μM Fluo-4 and 0.025% Pluronic F127 (Sigma-Aldrich, Taufkirchen, Germany). The cells are then washed twice with buffer A and incubated for 30 minutes with buffer A, which additionally contains 0.05% BSA and 0.05% gelatine, at RT and then used for Ca^2+ measurement in the FLIPR. The Ca^2+-dependent fluorescence is measured here before and after addition of substances (λex=488 nm, λem=540 nm). The quantification is performed by measuring the highest fluorescence intensity (FC, fluorescence counts) over time.
The FLIPR protocol comprises two additions of substance. Test substances (10 μM) are first pipetted onto the cells and the Ca^2+ inflow is compared with the control (hB1R: Lys-Des-Arg^9 bradykinin >=50 nM; rB1R: Des-Arg^9 bradykinin 10 μM). The value in % activation based on the Ca^2+ signal after addition of Lys-Des-Arg^9 bradykinin (>=50 nM) or Des-Arg^9 bradykinin (10 μM) is obtained therefrom. After incubation for 10-20 minutes, Lys-Des-Arg^9 bradykinin (hB1R) or Des-Arg^9 bradykinin (rB1R) is applied in the EC80 concentration and the inflow of Ca^2+ is likewise determined.
Antagonists lead to a suppression of the Ca^2+ inflow. The % inhibition in comparison with the maximum achievable inhibition is calculated. […]

B1R of the rat = molecular target: T2, B1R of the rat (Rattus norvegicus, UniProt P97583); experiment: FLIPR Ca2+ functional assay, B1R antagonism, rat B1R in CHO K1 cells; type: cell-based; settings: test substance 10 μM; rB1R CHO K1 cells; agonist Des-Arg9 bradykinin at EC80; % of maximum achievable inhibition
T2 construct: expressed in transfected cells; host or cells: CHO K1 cells (Chinese hamster ovary), stably transfected
T2 sequence (P97583 1-337): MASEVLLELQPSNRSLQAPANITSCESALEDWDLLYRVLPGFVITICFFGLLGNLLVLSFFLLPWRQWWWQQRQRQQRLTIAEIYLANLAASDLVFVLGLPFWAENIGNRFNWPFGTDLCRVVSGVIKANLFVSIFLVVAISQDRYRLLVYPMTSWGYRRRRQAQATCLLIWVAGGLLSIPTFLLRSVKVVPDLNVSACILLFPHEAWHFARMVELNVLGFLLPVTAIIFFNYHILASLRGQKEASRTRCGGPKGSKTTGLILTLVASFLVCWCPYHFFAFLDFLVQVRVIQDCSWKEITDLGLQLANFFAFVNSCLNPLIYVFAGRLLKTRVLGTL
In short: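 IC50 values come from varied compound concentrations applied 10-20 min before an EC80 agonist challenge, with Des-Arg9 bradykinin for rat and Lys-Des-Arg9 bradykinin for human receptor. Ca2+ influx in Fluo-4-loaded CHO K1 transfectants was measured by FLIPR peak fluorescence. Data are % inhibition vs maximum, n=2-3, N>=2.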

inhibition at 10 µM (human B1R)	inhibition at 10 µM (B1R of the rat)	SMILES
99.8%	101%	COc1ccc2cc(S(=O)(=O)N3CCn4cccc4C3CC(=O)NC3CCc4cc(CN5CCN(C)CC5)ccc4C3)ccc2c1 (stereo not drawn) [Example 99, 2-[2-[(6-Methoxy-naphthalen-2-yl)sulfonyl]-1,2,3,4-tetrahydro-pyrrolo[1,2-a]pyrazin-1-yl]-N-[6-[(4-methyl-piperazin-1-yl)-methyl]-1,2,3,4-tetrahydro-naphthalen-2-yl]-acetamide]
99.6%	101%	Cc1ccc(S(=O)(=O)N2CCn3cccc3C2CC(=O)NC2CCc3cc(CNC(C)(C)C)ccc3C2)cc1 (stereo not drawn) [Example 122, N-[6-[(tert-Butylamino)-methyl]-1,2,3,4-tetrahydro-naphthalen-2-yl]-2-[2-(p-tolylsulfonyl)-1,2,3,4-tetrahydro-pyrrolo[1,2-a]pyrazin-1-yl]-acetamide]
99.6%	94.9%	COc1cc(C)c(S(=O)(=O)N2CCn3cccc3C2COCC(=O)N2CCC(N3CC4CC3CN4C)CC2)c(C)c1 (stereo not drawn) [Example 40, 2-[[2-[(4-Methoxy-2,6-dimethyl-phenyl)sulfonyl]-1,2,3,4-tetrahydro-pyrrolo[1,2-a]pyrazin-1-yl]-methoxy]-1-[4-(3-methyl-3,6-diazabicyclo[2.2.1]heptan-6-yl)-piperidin-1-yl]-ethanone]
99.8%	99.5%	Cc1ccc(S(=O)(=O)N2CCn3cccc3C2CC(=O)NC2CCc3cc(CNC(C)(C)C)ccc3C2)cc1Cl (stereo not drawn) [Example 60, N-[6-[(tert-Butylamino)-methyl]-1,2,3,4-tetrahydro-naphthalen-2-yl]-2-[2-[(3-chloro-4-methyl-phenyl)sulfonyl]-1,2,3,4-tetrahydro-pyrrolo[1,2-a]pyrazin-1-yl]-acetamide]
100%	100%	COc1cc(C)c(S(=O)(=O)N2CCn3cccc3C2COCC(=O)N2CCC(Oc3ccncc3)CC2)c(C)c1 (stereo not drawn) [Example 13, 2-((2-(4-Methoxy-2,6-dimethylphenylsulfonyl)-1,2,3,4-tetrahydropyrrolo[1,2-a]pyrazin-1-yl)methoxy)-1-(4-(pyridin-4-yloxy)piperidin-1-yl)ethanone]
98.9%	102%	O=C(CC1c2cccn2CCN1S(=O)(=O)c1ccc(Cl)c(Cl)c1)NC1CCc2cc(CN3CCCCC3)ccc2C1 (stereo not drawn) [Example 26, 2-(2-(3,4-dichlorophenylsulfonyl)-1,2,3,4-tetrahydropyrrolo[1,2-a]pyrazin-1-yl)-N-(6-(piperidin-1-ylmethyl)-1,2,3,4-tetrahydronaphthalen-2-yl)acetamide]
99.9%	103%	COc1ccc2cc(S(=O)(=O)N3CCn4cccc4C3CC(=O)NC3CCc4cc(CNCc5ccccc5)ccc4C3)ccc2c1 (stereo not drawn) [Example 101, N-[6-[(Benzylamino)-methyl]-1,2,3,4-tetrahydro-naphthalen-2-yl]-2-[2-[(6-methoxy-naphthalen-2-yl)sulfonyl]-1,2,3,4-tetrahydro-pyrrolo[1,2-a]pyrazin-1-yl]-acetamide]
55.8%	29%	Cc1ccc(S(=O)(=O)N2CCn3cccc3C2CC(=O)N[C@H](C)c2ccc(CNC(C)(C)C)cc2)cc1 (stereo partly drawn) [Example 46, N-[(1R)-1-[4-[(tert-Butylamino)-methyl]-phenyl]-ethyl]-2-[2-(p-tolylsulfonyl)-1,2,3,4-tetrahydro-pyrrolo[1,2-a]pyrazin-1-yl]-acetamide]
100%	102%	COc1ccc2cc(S(=O)(=O)N3CCn4cccc4C3CC(=O)NC3CCc4cc(CN5CCOCC5)ccc4C3)ccc2c1 (stereo not drawn) [Example 118, 2-[2-[(6-Methoxy-naphthalen-2-yl)sulfonyl]-1,2,3,4-tetrahydro-pyrrolo[1,2-a]pyrazin-1-yl]-N-[6-(morpholin-4-yl-methyl)-1,2,3,4-tetrahydro-naphthalen-2-yl]-acetamide]
	0.145%	O=C(CC1c2cccn2CCN1S(=O)(=O)c1ccccc1)N1CCC(O)(c2cccnc2)CC1 (stereo not drawn) [Example 167, 2-[2-(Benzenesulfonyl)-1,2,3,4-tetrahydro-pyrrolo[1,2-a]pyrazin-1-yl]-1-(4-hydroxy-4-pyridin-3-yl-piperidin-1-yl)-ethanone]
	28%	O=C(CC1c2cccn2CCN1S(=O)(=O)c1ccccc1)N1CCC(c2ccccc2)CC1 (stereo not drawn) [Example 268, 2-[2-(Benzenesulfonyl)-1,2,3,4-tetrahydro-pyrrolo[1,2-a]pyrazin-1-yl]-1-(4-phenyl-piperidin-1-yl)-ethanone]
	55.8%	Cc1cccc(Cl)c1S(=O)(=O)N1CCn2cccc2C1CC(=O)N1CCC(CCN2CCCCC2)CC1 (stereo not drawn) [Example 165, 2-[2-[(2-Chloro-6-methyl-phenyl)sulfonyl]-1,2,3,4-tetrahydro-pyrrolo[1,2-a]pyrazin-1-yl]-1-[4-(2-piperidin-1-yl-ethyl)-piperidin-1-yl]-ethanone]
	-2.25%	O=C(CC1c2cccn2CCN1S(=O)(=O)c1cccc(C(F)(F)F)c1)N1CCC(N2CCCCC2)CC1 (stereo not drawn) [Example 188, 1-(4-Piperidin-1-yl-piperidin-1-yl)-2-[2-[[3-(trifluoromethyl)phenyl]sulfonyl]-1,2,3,4-tetrahydro-pyrrolo[1,2-a]pyrazin-1-yl]-ethanone]

SMILES	inhibition at 10 µM (human B1R)	inhibition at 10 µM (B1R of the rat)
Cc1ccc(S(=O)(=O)N2CCn3cccc3C2CC(=O)NC2CCc3cc(CN4C5CCCC4CC5)ccc3C2)cc1 (stereo not drawn) [Example 77, N-[6-(8-Azabicyclo[3.2.1]octan-8-yl-methyl)-1,2,3,4-tetrahydro-naphthalen-2-yl]-2-[2-(p-tolylsulfonyl)-1,2,3,4-tetrahydro-pyrrolo[1,2-a]pyrazin-1-yl]-acetamide]	99.2%	103%
